# Assay results reported in PubChem BioAssay (NCI).
#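 Method: 48-hour compound exposure of cells in 96-well plates, five concentrations, linear interpolation of endpoints. GI50 = concentration required for 50% inhibition of growth. TGI marks complete inhibition of growth.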
# What was measured:
# Test in all cases: growth of human tumour cells (NCI), 48 h
# EKVX NSCLC = tested on: EKVX NSCLC
# UO-31 renal = tested on: UO-31 renal
# TK-10 renal = tested on: TK-10 renal
# HOP-62 NSCLC = tested on: HOP-62 NSCLC
# K-562 leukemia = tested on: K-562 leukemia
# HCT-15 colon = tested on: HCT-15 colon
# OVCAR-5 ovarian = tested on: OVCAR-5 ovarian
# HCT-116 colon = tested on: HCT-116 colon
# NCI-H522 lung = tested on: NCI-H522 lung
# SN12C renal = tested on: SN12C renal
# UACC-62 melanoma = tested on: UACC-62 melanoma
# DMS 273 small cell lung = tested on: DMS 273 small cell lung
# HT29 colon = tested on: HT29 colon
# KM12 colon = tested on: KM12 colon
# NCI-H460 lung = tested on: NCI-H460 lung
# LXFL 529 NSCLC = tested on: LXFL 529 NSCLC
# A498 renal = tested on: A498 renal
# SF-268 CNS = tested on: SF-268 CNS
# NCI-H226 lung = tested on: NCI-H226 lung
# DLD-1 colon = tested on: DLD-1 colon
# OVCAR-8 ovarian = tested on: OVCAR-8 ovarian
# SW-620 colon = tested on: SW-620 colon
# HL-60(TB) leukemia = tested on: HL-60(TB) leukemia
# SNB-78 CNS = tested on: SNB-78 CNS
# HOP-18 NSCLC = tested on: HOP-18 NSCLC
# KM20L2 colon = tested on: KM20L2 colon
# SR leukemia = tested on: SR leukemia
# SK-MEL-2 melanoma = tested on: SK-MEL-2 melanoma
# SK-MEL-5 melanoma = tested on: SK-MEL-5 melanoma
# U251 CNS = tested on: U251 CNS
# A549 NSCLC = tested on: A549 NSCLC
# HOP-92 NSCLC = tested on: HOP-92 NSCLC
# M14 melanoma = tested on: M14 melanoma
# SF-539 CNS = tested on: SF-539 CNS
# OVCAR-4 ovarian = tested on: OVCAR-4 ovarian
# HCC-2998 colon = tested on: HCC-2998 colon
# UACC-257 melanoma = tested on: UACC-257 melanoma
# ACHN renal = tested on: ACHN renal
# OVCAR-3 ovarian = tested on: OVCAR-3 ovarian
# LOX IMVI melanoma = tested on: LOX IMVI melanoma
# MALME-3M melanoma = tested on: MALME-3M melanoma
# RPMI-8226 leukemia = tested on: RPMI-8226 leukemia
# IGROV1 ovarian = tested on: IGROV1 ovarian
# CCRF-CEM leukemia = tested on: CCRF-CEM leukemia
# COLO 205 colon = tested on: COLO 205 colon
# SNB-19 CNS = tested on: SNB-19 CNS
# SK-OV-3 ovarian = tested on: SK-OV-3 ovarian
# SNB-75 CNS = tested on: SNB-75 CNS
# SF-295 CNS = tested on: SF-295 CNS
# RXF 393 renal = tested on: RXF 393 renal
# CAKI-1 renal = tested on: CAKI-1 renal
# SK-MEL-28 melanoma = tested on: SK-MEL-28 melanoma
# 786-0 renal = tested on: 786-0 renal
smiles,measurement,setting,value
N.N.NCCCCCN.O=C([O-])CCl.O=C([O-])CCl.O=C([O-])CCl.O=C([O-])CCl.[Pt+4].[Pt+4],GI50,EKVX NSCLC,17 µM
same,TGI,EKVX NSCLC,58.2 µM
same,GI50,UO-31 renal,4.23 µM
same,TGI,UO-31 renal,17.9 µM
same,GI50,TK-10 renal,26.4 µM
same,TGI,TK-10 renal,> 100 µM
same,GI50,HOP-62 NSCLC,1360 nM
same,TGI,HOP-62 NSCLC,12.5 µM
same,GI50,K-562 leukemia,37.2 µM
same,TGI,K-562 leukemia,> 100 µM
same,GI50,HCT-15 colon,31.8 µM
same,TGI,HCT-15 colon,> 100 µM
same,GI50,OVCAR-5 ovarian,5.54 µM
same,TGI,OVCAR-5 ovarian,48.9 µM
same,GI50,HCT-116 colon,10.8 µM
same,TGI,HCT-116 colon,> 100 µM
same,GI50,NCI-H522 lung,3.3 µM
same,TGI,NCI-H522 lung,73.8 µM
same,GI50,SN12C renal,161 nM
same,TGI,SN12C renal,1690 nM
same,GI50,UACC-62 melanoma,406 nM
same,TGI,UACC-62 melanoma,53.9 µM
same,GI50,DMS 273 small cell lung,1290 nM
same,TGI,DMS 273 small cell lung,> 100 µM
same,GI50,HT29 colon,9.87 µM
same,TGI,HT29 colon,42.4 µM
same,GI50,KM12 colon,20.9 µM
same,TGI,KM12 colon,> 100 µM
same,GI50,NCI-H460 lung,316 nM
same,TGI,NCI-H460 lung,18.6 µM
same,GI50,LXFL 529 NSCLC,17.3 µM
same,TGI,LXFL 529 NSCLC,91.2 µM
same,GI50,A498 renal,11 µM
same,TGI,A498 renal,31.2 µM
same,GI50,SF-268 CNS,2130 nM
same,TGI,SF-268 CNS,36.8 µM
same,GI50,NCI-H226 lung,857 nM
same,TGI,NCI-H226 lung,3.9 µM
same,GI50,DLD-1 colon,19 µM
same,TGI,DLD-1 colon,> 100 µM
same,GI50,OVCAR-8 ovarian,14 µM
same,TGI,OVCAR-8 ovarian,> 100 µM
same,GI50,SW-620 colon,4.58 µM
same,TGI,SW-620 colon,> 100 µM
same,GI50,HL-60(TB) leukemia,1430 nM
same,TGI,HL-60(TB) leukemia,11.2 µM
same,GI50,SNB-78 CNS,24 µM
same,TGI,SNB-78 CNS,> 100 µM
same,GI50,HOP-18 NSCLC,6.51 µM
same,TGI,HOP-18 NSCLC,> 100 µM
same,GI50,KM20L2 colon,11.7 µM
same,TGI,KM20L2 colon,32 µM
same,GI50,SR leukemia,1730 nM
same,TGI,SR leukemia,16.8 µM
same,GI50,SK-MEL-2 melanoma,35.8 µM
same,TGI,SK-MEL-2 melanoma,> 100 µM
same,GI50,SK-MEL-5 melanoma,4.68 µM
same,TGI,SK-MEL-5 melanoma,18.3 µM
same,GI50,U251 CNS,5.06 µM
same,TGI,U251 CNS,40.6 µM
same,GI50,A549 NSCLC,3.03 µM
same,TGI,A549 NSCLC,30 µM
same,GI50,HOP-92 NSCLC,23.7 µM
same,TGI,HOP-92 NSCLC,51.6 µM
same,GI50,M14 melanoma,9.28 µM
same,TGI,M14 melanoma,33.5 µM
same,GI50,SF-539 CNS,3.08 µM
same,TGI,SF-539 CNS,19.8 µM
same,GI50,OVCAR-4 ovarian,10.2 µM
same,TGI,OVCAR-4 ovarian,48.3 µM
same,GI50,HCC-2998 colon,11.6 µM
same,TGI,HCC-2998 colon,28 µM
same,GI50,UACC-257 melanoma,9.12 µM
same,TGI,UACC-257 melanoma,94.6 µM
same,GI50,ACHN renal,3.39 µM
same,TGI,ACHN renal,29.9 µM
same,GI50,OVCAR-3 ovarian,17 µM
same,TGI,OVCAR-3 ovarian,49.2 µM
same,GI50,LOX IMVI melanoma,5.93 µM
same,TGI,LOX IMVI melanoma,> 100 µM
same,GI50,MALME-3M melanoma,11.9 µM
same,TGI,MALME-3M melanoma,39.2 µM
same,GI50,RPMI-8226 leukemia,44.9 µM
same,TGI,RPMI-8226 leukemia,> 100 µM
same,GI50,IGROV1 ovarian,18 µM
same,TGI,IGROV1 ovarian,67.3 µM
same,GI50,CCRF-CEM leukemia,1710 nM
same,TGI,CCRF-CEM leukemia,> 100 µM
same,GI50,COLO 205 colon,1780 nM
same,TGI,COLO 205 colon,8.45 µM
same,GI50,SNB-19 CNS,1940 nM
same,TGI,SNB-19 CNS,17.2 µM
same,GI50,SK-OV-3 ovarian,8.01 µM
same,TGI,SK-OV-3 ovarian,48.1 µM
same,GI50,SNB-75 CNS,996 nM
same,TGI,SNB-75 CNS,11.8 µM
same,GI50,SF-295 CNS,1840 nM
same,TGI,SF-295 CNS,86 µM
same,GI50,RXF 393 renal,2870 nM
same,TGI,RXF 393 renal,21.1 µM
same,GI50,CAKI-1 renal,1200 nM
same,TGI,CAKI-1 renal,7.55 µM
same,GI50,SK-MEL-28 melanoma,23.2 µM
same,TGI,SK-MEL-28 melanoma,73.8 µM
same,GI50,786-0 renal,3.36 µM
same,TGI,786-0 renal,24.4 µM
